# In BindingDB's records for patent US10485800 (The University of Rochester, 2019):
# Target: Mitogen-activated protein kinase kinase kinase 11 (Homo sapiens, UniProt Q16584)
# Test: Radiometric Filter Plate MLK3 Assay
# Description: 200 ng (130 nM) MLK3 (Dundee, DU8313) was incubated with 1 μM inactive MKK7b (Dundee, DU703) in the presence of 2 μM cold ATP (Km) and 0.5 μCi/assay 33P ATP and appropriate concentrations of compounds. After a twenty minute incubation, the reactions were washed through filter plates and read on a scintillation counter.
# Chain of Mitogen-activated protein kinase kinase kinase 11 (Q16584 whole entry): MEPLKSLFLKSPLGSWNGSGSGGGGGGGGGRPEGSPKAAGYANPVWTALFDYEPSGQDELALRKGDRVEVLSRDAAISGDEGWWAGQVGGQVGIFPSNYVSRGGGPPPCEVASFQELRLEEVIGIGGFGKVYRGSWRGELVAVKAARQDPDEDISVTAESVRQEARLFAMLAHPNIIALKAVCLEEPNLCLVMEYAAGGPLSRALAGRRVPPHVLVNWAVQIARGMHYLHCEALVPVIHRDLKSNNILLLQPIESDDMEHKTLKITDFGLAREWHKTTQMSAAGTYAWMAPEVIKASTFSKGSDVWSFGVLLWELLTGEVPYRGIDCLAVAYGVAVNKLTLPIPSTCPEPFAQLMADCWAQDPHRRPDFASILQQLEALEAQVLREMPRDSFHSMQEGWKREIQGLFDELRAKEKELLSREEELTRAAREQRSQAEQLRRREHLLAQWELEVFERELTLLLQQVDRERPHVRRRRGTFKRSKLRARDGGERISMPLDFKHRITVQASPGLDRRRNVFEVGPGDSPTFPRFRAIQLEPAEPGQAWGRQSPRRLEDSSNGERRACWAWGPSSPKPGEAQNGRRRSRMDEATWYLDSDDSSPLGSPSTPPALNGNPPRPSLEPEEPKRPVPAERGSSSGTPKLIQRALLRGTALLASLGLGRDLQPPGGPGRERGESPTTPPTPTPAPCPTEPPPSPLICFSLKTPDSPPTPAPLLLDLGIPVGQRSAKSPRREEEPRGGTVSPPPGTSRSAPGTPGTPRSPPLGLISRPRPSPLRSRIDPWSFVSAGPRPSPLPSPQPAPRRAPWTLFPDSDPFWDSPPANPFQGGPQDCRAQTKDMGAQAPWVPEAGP
smiles,measurement,value
"CC(=O)N1CCN(C(=O)c2ccc(-c3cnc4[nH]cc(-c5ccc(C(N)=O)cc5)c4c3)cc2)CC1 [US10485800, Example 150]",IC50,in the range around 550 nM
